Measured values from PMC7048932, “Examining sterically demanding lysine analogs for histone lysine methyltransferase catalysis” (Scientific Reports, 2020).
Entries after “also recorded” stand apart in the source; their conditions may differ.

What was measured:
SETD7 = test: MALDI-TOF MS methylation assay of H3K4 peptides with SETD7; format: biochemical, human; conditions: peptide 100 µM, SETD7 2 µM, SAM 200 µM, 1 h, 37 °C
Experimental: (§1) MALDI-MS methyltransferases activity experiments were performed using a Bruker instrument in the reflectron positive mode. For regular methyltransferase standard conditions experiment which carried out in 30 µL total volume, the mixture contains peptide (100 µM), SAM (200 µM), SETD8 or SETD7 (2 µM), in assay buffer 50 mM Tris at optimal pH 8.0. In case of G9a and GLP, similar conditions were used, except (500 µM) of SAM was added to the reaction mixture. Samples were incubated in an Eppendorf vial 1.5 mL using thermomixer for 1 h at 37 °C. A 5 µL aliquot of the solution was mixed with 5 µL of MeOH, after which 5 µL of this mixture was mixed with 5 µL of α-cyano-4-hydroxycinamic acid matrix (CHCA, 5 mg/mL in 125:125 µL acetonitrile/water). The spots were placed on a stainless steel MALDI plate (MS 96 target ground steel BC of Bruker, Germany). The mass corresponding to one monomethylation observed as +14 Da, dimethylation observed as +28 Da and trimethylation observed as +42 Da. The enzymatic activity was determined by taking the peak areas of each methylation state, including all isotopes and adducts, and was annotated using FlexAnalysis software (Bruker Daltonics, Germany). […] Methylated peptide substrates were repeated five times and the unmethylated substrates were triplicated. Sequences of the examined peptides are given in (Supplementary Table 1).

GLP [1] = biological target: T1, GLP (Homo sapiens, UniProt Q9H9B1); test: MALDI-TOF MS methylation assay of H3K9 peptides with GLP; format: biochemical; conditions: peptide 100 µM, GLP 10 µM, SAM 1 mM, 5 h, 37 °C, MALDI-MS
T1 construct: His6 (N); made in house; host or cells: E. coli BL21 (DE3)pLysS-rosetta
T1 sequence (Q9H9B1 1-1298): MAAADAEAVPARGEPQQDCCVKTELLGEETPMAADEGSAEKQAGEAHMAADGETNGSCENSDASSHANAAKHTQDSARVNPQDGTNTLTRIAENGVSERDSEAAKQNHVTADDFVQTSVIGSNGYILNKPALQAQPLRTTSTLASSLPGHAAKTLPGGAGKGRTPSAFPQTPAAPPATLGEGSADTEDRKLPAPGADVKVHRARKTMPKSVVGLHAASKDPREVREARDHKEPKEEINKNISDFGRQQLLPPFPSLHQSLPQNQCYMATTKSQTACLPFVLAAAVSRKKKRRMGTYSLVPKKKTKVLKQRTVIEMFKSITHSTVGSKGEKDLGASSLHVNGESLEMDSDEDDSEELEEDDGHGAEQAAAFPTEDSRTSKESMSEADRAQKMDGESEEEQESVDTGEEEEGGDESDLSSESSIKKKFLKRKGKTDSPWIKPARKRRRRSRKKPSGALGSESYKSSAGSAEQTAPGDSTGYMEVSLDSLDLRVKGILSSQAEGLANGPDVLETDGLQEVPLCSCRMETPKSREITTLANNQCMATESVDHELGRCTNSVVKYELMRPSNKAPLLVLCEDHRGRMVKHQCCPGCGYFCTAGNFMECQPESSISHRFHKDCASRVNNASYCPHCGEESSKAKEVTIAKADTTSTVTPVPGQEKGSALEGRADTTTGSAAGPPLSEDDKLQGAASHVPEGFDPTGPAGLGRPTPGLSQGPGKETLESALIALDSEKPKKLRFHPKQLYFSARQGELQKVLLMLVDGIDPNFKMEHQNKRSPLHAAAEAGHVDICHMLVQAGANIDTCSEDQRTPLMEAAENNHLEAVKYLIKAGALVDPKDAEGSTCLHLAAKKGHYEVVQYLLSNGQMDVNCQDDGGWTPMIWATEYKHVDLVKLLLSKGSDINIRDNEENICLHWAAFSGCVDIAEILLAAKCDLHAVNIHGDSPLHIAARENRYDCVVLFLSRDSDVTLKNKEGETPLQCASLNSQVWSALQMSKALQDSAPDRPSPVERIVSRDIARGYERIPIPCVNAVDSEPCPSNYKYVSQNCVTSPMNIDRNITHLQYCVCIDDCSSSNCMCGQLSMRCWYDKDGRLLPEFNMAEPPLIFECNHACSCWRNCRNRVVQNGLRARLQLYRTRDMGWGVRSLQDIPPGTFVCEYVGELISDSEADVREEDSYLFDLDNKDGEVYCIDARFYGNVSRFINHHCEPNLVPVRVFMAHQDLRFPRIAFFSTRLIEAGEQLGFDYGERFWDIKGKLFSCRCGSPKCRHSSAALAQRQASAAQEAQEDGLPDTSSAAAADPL
Experimental: as §1, with “Samples were incubated in an Eppendorf vial 1.5 mL using thermomixer for 1 h at 37 °C.” left out

GLP [2] = biological target: T1, GLP; test: NMR assay of GLP-catalyzed methylation of H3K9 peptides; format: biochemical; conditions: peptide 400 µM, GLP 8 µM, SAM 2 mM, 50 mM Tris-d11.HCl pD 8.0, 1 h, 37 °C
G9a = biological target: T2, G9a (Homo sapiens, UniProt Q96KQ7); test: MALDI-TOF MS methylation assay of H3K9 peptides with G9a; format: biochemical; conditions: peptide 100 µM, G9a 2 µM, SAM 500 µM, 1 h, 37 °C
T2 construct: His6 (N); made in house; host or cells: E. coli BL21 (DE3)pLysS-rosetta
T2 sequence (Q96KQ7 1-1210): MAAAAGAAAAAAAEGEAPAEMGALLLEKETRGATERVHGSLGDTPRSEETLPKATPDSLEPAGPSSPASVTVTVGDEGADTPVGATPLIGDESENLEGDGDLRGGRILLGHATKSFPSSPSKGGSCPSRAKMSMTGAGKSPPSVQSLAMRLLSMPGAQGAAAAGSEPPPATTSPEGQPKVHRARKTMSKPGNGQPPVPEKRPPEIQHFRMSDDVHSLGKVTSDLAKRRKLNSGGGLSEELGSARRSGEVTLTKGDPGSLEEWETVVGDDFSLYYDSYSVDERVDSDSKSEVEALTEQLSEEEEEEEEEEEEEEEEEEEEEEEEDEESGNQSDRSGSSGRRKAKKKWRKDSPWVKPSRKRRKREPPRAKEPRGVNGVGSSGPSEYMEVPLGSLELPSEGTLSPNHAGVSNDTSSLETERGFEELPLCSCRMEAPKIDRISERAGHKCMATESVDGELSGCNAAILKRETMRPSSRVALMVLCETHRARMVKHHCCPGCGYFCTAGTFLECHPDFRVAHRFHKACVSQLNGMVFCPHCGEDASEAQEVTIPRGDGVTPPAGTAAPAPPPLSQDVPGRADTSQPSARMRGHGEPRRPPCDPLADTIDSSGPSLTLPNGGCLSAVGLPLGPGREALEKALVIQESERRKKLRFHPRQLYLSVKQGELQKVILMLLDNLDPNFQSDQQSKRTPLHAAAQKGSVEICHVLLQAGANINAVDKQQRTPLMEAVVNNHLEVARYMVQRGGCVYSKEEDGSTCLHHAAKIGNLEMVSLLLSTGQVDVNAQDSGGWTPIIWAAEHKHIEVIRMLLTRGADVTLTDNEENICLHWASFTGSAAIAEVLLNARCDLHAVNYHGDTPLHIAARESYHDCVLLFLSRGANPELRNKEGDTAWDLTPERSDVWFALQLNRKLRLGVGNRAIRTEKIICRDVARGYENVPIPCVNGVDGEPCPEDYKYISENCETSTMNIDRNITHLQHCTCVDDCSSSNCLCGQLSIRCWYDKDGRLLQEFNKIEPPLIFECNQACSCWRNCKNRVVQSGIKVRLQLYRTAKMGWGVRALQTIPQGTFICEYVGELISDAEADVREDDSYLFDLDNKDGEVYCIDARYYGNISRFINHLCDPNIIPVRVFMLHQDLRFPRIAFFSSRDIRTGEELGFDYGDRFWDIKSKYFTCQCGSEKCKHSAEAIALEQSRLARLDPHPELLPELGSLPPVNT
Experimental: as §1

SETD8 = biological target: T3, SETD8 (Homo sapiens, UniProt Q9NQR1); test: MALDI-TOF MS methylation assay of H4K20 peptides with SETD8; format: biochemical; conditions: peptide 100 µM, SETD8 10 µM, SAM 1 mM, 1 h and 5 h, 37 °C, MALDI-MS
T3 construct: His6 (N); made in house; host or cells: E. coli BL21 (DE3)pLysS-rosetta
T3 sequence (Q9NQR1 1-393): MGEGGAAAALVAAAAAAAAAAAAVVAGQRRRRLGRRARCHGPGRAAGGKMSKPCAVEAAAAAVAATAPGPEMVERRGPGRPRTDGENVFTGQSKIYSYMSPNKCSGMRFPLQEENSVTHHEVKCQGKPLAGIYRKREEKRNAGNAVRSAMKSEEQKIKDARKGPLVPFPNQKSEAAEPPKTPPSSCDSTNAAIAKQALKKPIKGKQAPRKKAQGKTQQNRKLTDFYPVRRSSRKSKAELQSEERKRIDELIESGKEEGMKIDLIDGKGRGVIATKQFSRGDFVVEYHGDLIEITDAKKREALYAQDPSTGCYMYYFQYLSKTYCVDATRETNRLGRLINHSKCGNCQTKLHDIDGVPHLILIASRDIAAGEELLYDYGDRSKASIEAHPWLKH
Experimental: as §1, with “For regular methyltransferase standard conditions experiment which carried out in 30 µL total volume, the mixture contains peptide (100 µM), SAM (200 µM), SETD8 or SETD7 (2 µM), in assay buffer 50 mM Tris at optimal pH 8.0.” left out

Row | Substance | SETD7-catalyzed methylation, result in words (SETD7) | SETD8-catalyzed methylation, result in words, increased SETD8/SAM and prolonged incubation (SETD8) | also measured
1 | ART(Ap4)QTARKSTGGKA [H3AP4, H3K4 peptide bearing pyridylalanine at position 4] | lack of methylation |  | 
2 | ART(F3a4)QTARKSTGGKA [H3F3a4, H3K4 peptide bearing meta-aminophenylalanine at position 4] | lack of methylation |  | 
3 | ART(Kba4)QTARKSTGGKA [H3Kba4, H3K4 peptide bearing benzylamine lysine analog at position 4] | lack of methylation |  | 
4 | ART(Y4)QTARKSTGGKA [H3Y4, H3K4 peptide bearing tyrosine at position 4] | lack of methylation |  | 
5 | ARTKQTAR(Ap9)STGGKA [H3AP9] |  |  | GLP-catalyzed methylation, result in words, increased GLP/SAM (GLP [1]): lack of methylation; GLP-catalyzed methylation by 1H NMR / 1H-13C HSQC, result in words (GLP [2]): not methylated; G9a-catalyzed methylation, result in words (G9a): lack of methylation
6 | ARTKQTAR(F4a9)STGGKA [H3F4a9] |  |  | GLP-catalyzed methylation, result in words, increased GLP/SAM (GLP [1]): lack of methylation; GLP-catalyzed methylation by 1H NMR / 1H-13C HSQC, result in words (GLP [2]): not methylated; G9a-catalyzed methylation, result in words (G9a): lack of methylation
7 | ARTKQTARKSTGGK [H3 1-14K9, reference compound] |  |  | G9a-catalyzed methylation, result in words (G9a): trimethylation
8 | ARTK^4QTARKSTGGKA [H3K4, reference compound] | formation of monomethylated H3K4; also recorded: monomethylation |  | 
9 | GGAKRHR(Ap20)VLRDNIQ [H4AP20, H4K20 peptide bearing pyridylalanine at position 20] |  | lack of methylation | 
10 | GGAKRHR(F3a20)VLRDNIQ [H4F3a20, H4K20 peptide bearing meta-aminophenylalanine at position 20] |  | lack of methylation | 
11 | GGAKRHR(F4a20)VLRDNIQ [H4F4a20, H4K20 peptide bearing para-aminophenylalanine at position 20] |  | lack of methylation | 
12 | GGAKRHR(Y20)VLRDNIQ [H4Y20, H4K20 peptide bearing tyrosine at position 20] |  | lack of methylation | 
